{"source": "patent US20170129864A1", "about": "“NEW SIGMA-RECEPTORS LIGANDS WITH ANTI-APOPTOTIC AND/OR PRO-APOPTOTIC PROPERTIES, OVER CELLULAR BIOCHEMICAL MECHANISMS WITH NEUROPROTECTIVE, ANTI-CANCER, ANTI-METASTATIC AND ANTI-(CHRONIC) INFLAMMATORY ACTION” (Anavex Life Sciences Corp., priority 2007, published 2017)", "key": {"[1]": {"target": "σ-1 receptors (Homo sapiens, UniProt Q99720)", "sequence (Q99720 whole entry)": "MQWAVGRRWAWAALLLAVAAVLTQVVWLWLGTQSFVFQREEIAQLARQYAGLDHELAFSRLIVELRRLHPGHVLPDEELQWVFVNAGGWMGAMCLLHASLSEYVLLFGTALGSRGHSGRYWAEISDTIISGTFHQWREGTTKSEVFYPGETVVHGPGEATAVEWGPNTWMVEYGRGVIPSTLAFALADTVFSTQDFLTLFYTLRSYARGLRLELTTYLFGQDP", "assay": "agonistic or antagonistic action on σ-1 receptors"}, "[2]": {"target": "T1, σ-2 receptors (Homo sapiens, UniProt Q5BJF2)", "T1 sequence (Q5BJF2 whole entry)": "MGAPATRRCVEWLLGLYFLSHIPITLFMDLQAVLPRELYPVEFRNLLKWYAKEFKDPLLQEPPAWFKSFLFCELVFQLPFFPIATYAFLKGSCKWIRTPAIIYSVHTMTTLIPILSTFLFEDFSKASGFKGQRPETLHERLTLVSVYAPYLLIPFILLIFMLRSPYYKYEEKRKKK", "assay": "affinity for σ-2 receptors", "format": "binding"}, "[3]": {"system": "Aβ25-35 induced neutotoxicity and oxidative stress", "assay": "Aβ25-35 induced neurotoxicity and oxidative stress", "format": "in vivo", "details": "0.03-1 mg/kg, i.p"}, "[4]": {"system": "mice", "assay": "forced swimming test", "format": "in vivo", "set-up": "dose or concentration left out as unconfirmed", "details": "forced swimming test in mice"}, "[5]": {"target": "T1, σ-2 receptors", "assay": "agonistic action for σ-2"}, "[6]": {"system": "scopolamine and dizocilpine (MK-801) induced amnesia or amyloid peptide β25-35 (Aβ25-35)", "assay": "anti-amnesic action against scopolamine, dizocilpine (MK-801) or Aβ25-35 induced amnesia", "format": "in vivo", "details": "per os (po), in mice"}, "[7]": {"system": "cancer cells", "assay": "cytotoxic action on cancer cells via apoptosis", "format": "cell-based", "details": "depending on the cell line used"}, "[8]": {"system": "anoxia that is caused by pentylenetetrazole (PTZ)", "assay": "protection against pentylenetetrazole (PTZ) induced anoxia and tonic crises", "format": "in vivo, mice"}}}
{"smiles": "CN(C)CC1COC(c2ccccc2)(C23CC4CC(CC(C4)C2)C3)C1", "note": "(stereo not drawn) [AdPhAE, 5-(TRICYCLO[3.3.1.13,7]DEC-1-YL)-TETRAHYDRO-N,N-DIMETHYL-5-PHENYL-3-FURANEMETHANAMINE-]", "values": [{"measurement": "action on σ-1 receptors", "setting": "[1]", "value": "weak agonists"}]}
{"smiles": "CN(C)CC1CCOC1(c1ccccc1)c1ccccc1", "note": "(stereo not drawn) [AE37, tetrahydro-N,N-dimethyl-2,2-diphenyl-3-furanomethanamine]", "values": [{"measurement": "affinity for σ-2 receptors", "setting": "[2]", "value": "no affinity"}, {"measurement": "activity against Aβ25-35 induced neurotoxicity and oxidative stress", "setting": "[3]", "value": "very performant"}]}
{"smiles": "CN(C)CC1COC(c2ccccc2)(c2ccccc2)C1", "note": "(stereo not drawn) [AE14, Tetrahydro-N,N,-dimethyl-5,5-diphenyl-3-furanomethanamine]", "values": [{"measurement": "Ki", "setting": "[2]", "value": "> 10", "unit": "µM"}, {"measurement": "affinity for σ-2 receptors, times lower than for σ-1", "setting": "[2]; σ-2 versus σ-1", "value": "more than 100 times"}, {"measurement": "anti-immobility action", "setting": "[4]", "value": "very strong anti-immobility action"}, {"measurement": "concentration at which agonistic action for σ-2 is shown", "setting": "[5]", "value": "over 10 μM"}, {"measurement": "anti-amnesic action, active doses from", "setting": "[6]", "value": "≥ 0.03", "unit": "mg/kg"}, {"measurement": "concentration at which cytotoxic action on cancer cells is shown", "setting": "[7]", "value": "over 200 μM"}]}
{"smiles": "CN(C)CC1COC2(C1)C1CC3CC(C1)CC2C3", "note": "(stereo not drawn) [AdAE, (DIHYDRO-4-(DIMETHYLAMINOMETHYL)SPIRO{FURANE-2(3H), 2′TRICYCLO[3.3.1.13,7]DECANE}]", "values": [{"measurement": "action on σ-1 receptors", "setting": "[1]", "value": "weak agonists"}]}
{"smiles": "CNCC1CCOC1(c1ccccc1)c1ccccc1", "note": "(stereo not drawn) [AE37 Met, tetrahydro-N-methyl-2,2-diphenyl-3-furanomethanamine]", "values": [{"measurement": "protection against anoxia caused by pentylenetetrazole (PTZ)", "setting": "[8]; in mice", "value": "exceptional protection"}, {"measurement": "activity relative to AE37 for the properties mentioned", "setting": "[8]; mainly neuroprotective action", "value": "slightly more active than AE37"}]}
